Experimental data published in patent US20200268832A1, “COMPOSITIONS FOR DELIVERY TO AND TREATMENT OF ATHEROSCLEROTIC PLAQUES” (Sanford Burnham Prebys Medical Discovery Institute, priority 2015, published 2020).
Entries after “also recorded” stand apart in the source; their conditions may differ.

Experiments:
plaque macrophages = assay: Cytotoxicity to plaque macrophages ex vivo; format: cell-based
Description: Two of the hits from the screen passed all the specificity tests, and one of these has been characterized to some extent in vivo (FIG. 10). […] Thus, the discovered compounds, especially #008 and #7933989, served as a starting point for other compounds with affinity for p32. Orally available compounds provide significant new opportunities in prevention and treatment of atherosclerosis.

b1b2 domain of NRP-1 = biological target: T1, b1b2 domain of NRP-1 (Homo sapiens, UniProt O14786); assay: Fluorescence polarization displacement of FAM-RPARPAR from NRP-1; format: binding; settings: specificity assay, up to 100 μM
T1 sequence (O14786 273-586 limits assumed): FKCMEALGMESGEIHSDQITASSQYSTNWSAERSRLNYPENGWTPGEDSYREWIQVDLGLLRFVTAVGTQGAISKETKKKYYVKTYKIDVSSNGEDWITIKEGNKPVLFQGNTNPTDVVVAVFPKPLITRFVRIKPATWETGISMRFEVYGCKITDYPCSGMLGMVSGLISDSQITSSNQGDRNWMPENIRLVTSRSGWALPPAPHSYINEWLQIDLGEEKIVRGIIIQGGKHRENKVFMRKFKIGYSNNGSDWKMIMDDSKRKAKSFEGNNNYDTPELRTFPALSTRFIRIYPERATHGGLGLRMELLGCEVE
Protocol: Results of the high-throughput screen were confirmed in dose response tests. 8.25 μM to 100 μM dilutions of the compounds that displaced FAM-peptide from p32 were used in competition with FAM-peptide as described in previous section. Specificity of the hit compounds was verified by examining their binding to a different protein, b1b2 domain of NRP-1 (Vander Kooi et al., Proc. Natl. Acad. Sci. U.S.A., 10.1073/pnas.0700043104). Experimental method for NRP-1 b1b2 was developed and validated similarly to p32, using FAM-RPARPAR peptide as a known peptide ligand for NRP-1. The displacement of FAM-RPARPAR from NRP-1 protein by the hit compounds was studied in 384-well format, as described above.

p32 protein [1] = biological target: T2, p32 protein (Homo sapiens, UniProt Q07021); assay: Fluorescence polarization assay: displacement of FAM-TT1 from p32 (HTS, dose response, unlabeled peptide competition); format: binding
T2 construct: 6xHis; host or cells: Rosetta-gami-2 cells (Novagen); an E. coli strain by own knowledge
T2 sequence (Q07021 74-282): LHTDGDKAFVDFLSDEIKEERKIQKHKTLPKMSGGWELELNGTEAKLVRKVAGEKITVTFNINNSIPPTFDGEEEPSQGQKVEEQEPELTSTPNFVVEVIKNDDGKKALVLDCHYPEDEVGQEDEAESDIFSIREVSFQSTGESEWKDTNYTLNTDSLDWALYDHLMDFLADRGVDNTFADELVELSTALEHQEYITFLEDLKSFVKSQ
Protocol: Fluorescence polarization (FP)-based assay was used for solution-based screening of compound libraries for p32 binding compounds. […] In FP assay, peptide conjugated with a fluorescent label (fluorescein-AM, FAM) is excited with polarized light. […] 6×-His-Tagged p^32 was expressed in Rosetta-gami-2 cells (Novagen). The protein was purified by IMAC using HIS-select resin (Sigma) with an imidizole gradient from 20-300 mM and eluted fractions were analyzed on analytical SDS-PAGE. […] Fluorescence polarization is given as milli-polarization (mP) value, which is obtained from equation (1):
mP=1000*(S−P)/(S+P), (Eq. 1)
The assay was initially set up in 20 μl well volume in 384 well plate (Corning Life Sciences), and measurements were carried out using PheraStar FS plate reader (BMG LABTECH, Ortenberg, Germany) in quadruplicate. Peptide and protein stock solutions were diluted to desired concentration with assay buffer (50 mM BIS-TRIS pH 7.4, 0.05% Tween20, 1 mM DTT). FAM-labeled peptides were protected from light during the experiment to avoid photobleaching. Optimal concentration of fluorescein (FAM) labeled-peptides for the assay was determined by measuring the limit of detection (LOD), signal-to-background ratio (S/B), and stability of mP value over series of peptide concentrations. In the binding assay, the concentration of FAM-peptide was kept constant, and the FP was measured over the range of target protein concentrations. The peptide dissociation constant (KD) was obtained by fitting the binding curve into Michaelis-Menten kinetics in GraphPad Prism-software (GraphPad Software, Inc., CA, USA).
FAM-TT-1 and p32 solutions are prepared just before experiment, and stored on ice during the screen; the peptide is shielded from light. • 1. […] Dispense 1.5 μL of assay buffer (50 mM BIS-TRIS pH 7.4, 0.05% Tween 20, 1 mM DTT) into columns 1-4 • 3. […] Dispense 37.5 nL of compounds (2 mM) into columns 5-44 • 5. Spin plate • 6. Incubate 20 min • 7. Dispense 1.5 μL FAM-TT-1 peptide (20 nM) into all columns • 8. Shake plate and spin plate • 9. Incubate 25 min • 10. Read plate on PheraStar FS
Chemical library of ˜50,000 compounds from ChemBridge (San Diego, Calif.) was screened in High-Throughput Screening Facility at Conrad Prebys Center for Chemical Genomics (Sanford-Burnham Medical Research Institute, La Jolla, Calif.). […] Peptide and protein were diluted immediately prior to screening, kept on ice during screening, and FAM-peptide was protected from light throughout the experiment. […]

p32 protein [2] = biological target: T2, p32 protein; assay: NMR 1D 1H-aliph spectra of p32 with compounds; format: binding; settings: 5 μM p32; compounds 100 and 500 μM; TT1 70 μM
Protocol: FIGS. 3A and 3B are graphs showing NMR based evaluation of binding of compounds 4014008 and 7933989 to P32 protein. The ID ^1H-aliph spectra of 5 μM P32 in the absence (bottom) and presence of compounds #4014008 (A) and #7933989 (B) at 100 μM (second from bottom) and 500 μM (second from top) were collected. As a control, the spectrum of p32 in the presence of the known peptide binder, TT1 at 70 μM, was also collected (top).
All the NMR experiments were carried out on a Bruker Avance 700 spectrometer equipped with a TCI cryoprobe at T=293 K. For structure determinations, the peptide concentration was 100 μM in the NMR buffer in presence of 150 μM of ZnCl2. One-dimensional (1D) 1H spectra were acquired with a spectral width of 8417.51 Hz, relaxation delay 1.0 s, 8 k data points for acquisition and 16 k for transformation.

## Cc1cnccc1NCCN [Compound 4014008, N-(3-methylpyridin-4-yl)ethane-1,2-diamine]
Plaque macrophages
  cytotoxicity to plaque macrophages: cytotoxic to plaque macrophages
b1b2 domain of NRP-1
  effect on RPARPAR peptide binding to NRP-1: no effect
p32 protein [1]; high-throughput screen hits, inhibition of TT1-p32 interaction, library compounds 25 μM (Table 1), b410 says 100 μM
  inhibition at 25 µM: 29.9%
p32 protein [1]; highest concentration used, 100 μM, read-out: inhibition of FAM-TT1 binding to p32 in FP assay
  inhibition at 100 µM: 75%
p32 protein [2]
  perturbations in 1D 1H-aliphatic spectra of p32: caused similar perturbations; also recorded: shift in the peak at around −0.3 ppm
